The target in data set [1] is T1, cdk5 (Rb protein as substrate) (Homo sapiens, UniProt Q00535).
T1 construct: purchased Millipore or Cell Signaling Technology
The experiment in a line: In vitro CDK5 kinase assay with Rb as substrate. The data set is classed as biochemical. As to conditions: selectivity control. Here is the method: Kinase assays were performed using an active cdk5/p35 protein and recombinant PPAR gamma protein as a substrate in kinase buffer in the presence of ATP. The reaction was stopped by adding sample buffer. Samples were then subjected to SDS-PAGE, and detected by CDK substrate antibody. In particular, active cdk5/p35, cdk1/cdc2, cdk2/cyclin A, cdk2/cyclin E or cdk4/cyclin D1 kinases were purchased from Millipore or Cell Signaling Technology. In vitro CDK kinase assay was performed according to the manufacturer's instructions (Cell Signaling Technology). Briefly, 1 μg of immuno-purified WT or S273A mutant of PPAR gamma were incubated with active CDK kinase in kinase assay buffer (25 mM Tris-HCl pH 7.5, 5 mM beta-glycerophosphate, 2 mM dithiothreitol (DTT), 0.1 mM Na3VO4, 10 mM MgCl2) containing 20 μM ATP for 15 min at 30° C. Positive control for assay, purified histone H1 (Millipore) or Rb (Cell Signaling Technology) were used. Several PPAR gamma ligands were pre-incubated with substrates for 30 min, and the assay was performed. Phosphorylation of substrates after SDS-PAGE was analyzed with anti-CDK substrate antibody (Cell Signaling Technology).

Data set [2] has as its target T2, PPAR gamma (PPAR transcriptional response element) (Mus musculus, UniProt P37238).
T2 construct: expressed in transfected cells; host or cells: HEK-293
T2 sequence (P37238 1-505): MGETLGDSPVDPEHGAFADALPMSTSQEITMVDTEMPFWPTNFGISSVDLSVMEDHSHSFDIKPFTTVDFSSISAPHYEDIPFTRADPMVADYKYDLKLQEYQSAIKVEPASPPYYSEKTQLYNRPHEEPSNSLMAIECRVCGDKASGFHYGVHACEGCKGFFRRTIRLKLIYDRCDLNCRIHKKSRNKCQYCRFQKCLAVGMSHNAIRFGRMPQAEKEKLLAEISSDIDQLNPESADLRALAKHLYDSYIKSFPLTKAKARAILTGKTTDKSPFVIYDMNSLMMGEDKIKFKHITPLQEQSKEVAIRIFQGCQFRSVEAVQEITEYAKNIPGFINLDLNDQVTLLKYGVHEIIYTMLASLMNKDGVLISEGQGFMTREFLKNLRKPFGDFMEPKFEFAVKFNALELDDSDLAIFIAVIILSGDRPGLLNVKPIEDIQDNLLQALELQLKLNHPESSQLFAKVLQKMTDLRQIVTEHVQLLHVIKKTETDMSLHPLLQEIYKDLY
T2 sequence (P19793 1-462 partner): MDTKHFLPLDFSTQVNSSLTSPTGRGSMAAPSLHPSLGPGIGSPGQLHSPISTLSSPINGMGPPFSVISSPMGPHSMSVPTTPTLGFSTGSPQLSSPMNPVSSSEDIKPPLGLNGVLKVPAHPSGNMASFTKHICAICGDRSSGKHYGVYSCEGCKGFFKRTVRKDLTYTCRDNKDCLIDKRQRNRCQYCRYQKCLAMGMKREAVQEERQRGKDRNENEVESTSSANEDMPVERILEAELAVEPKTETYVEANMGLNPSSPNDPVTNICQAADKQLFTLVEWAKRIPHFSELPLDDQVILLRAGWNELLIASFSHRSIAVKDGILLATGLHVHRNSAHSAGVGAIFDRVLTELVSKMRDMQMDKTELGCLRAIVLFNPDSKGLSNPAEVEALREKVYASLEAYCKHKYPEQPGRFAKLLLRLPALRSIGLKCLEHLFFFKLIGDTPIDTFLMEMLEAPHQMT
The experiment in a line: Reporter gene assay, PPAR-derived reporter gene in HEK-293 cells. It is filed as cell-based. Here is the method: In some examples, HEK-293 cells were seeded in 12-well plates at 1.5×10^5 cells/well. HEK-293 cells were transfected with pDR-1 (3×, based on the UCP1 PPAR gamma recognition site)-luciferase reporter plasmid, PPAR gamma, RXRa and pRL-renillin using Lipofectamine 2000 (Invitrogen). […] The cells were harvested and reporter gene assays were carried out using the Dual-Luciferase kit (Promega). Luciferase activity was normalized to renillia activity.

Data set [3] deals with T3, PPAR gamma (TNF-α-mediated phosphorylation) (Mus musculus, UniProt P37238).
T3 construct: expressed in transfected cells; host or cells: HEK-293
T3 sequence (P37238 1-505): T2 sequence (P37238 1-505)
In words: TNF-α-induced phosphorylation of PPAR gamma in HEK-293 cells. As to conditions: 30 nM; FIG. 5E. It is filed as cell-based.
Procedure: HEK-293 cells expressing CDK5 or PPAR gamma were collected after transfection. Total cell lysates were incubated with FLAG M2 agarose (Sigma) at 4° C. Immunoprecipitates or total cell lysates were analyzed with anti-CDK substrate, FLAG or HA (Roche) antibodies. Differentiated 3T3-L1 adipocytes were treated with TNF-α (50 ng/ml), IL-6 (50 ng/ml), IL-10 (50 ng/ml) or FFAs (400 μM palmitic acid and oleic acid mixtures) for the indicated times, and cell lysates were analyzed with phospho-specific or PPAR gamma antibodies. 3T3-L1 adipocytes were pre-treated with various PPAR gamma ligands, and incubated with TNF-α. […] Phosphorylation of PPAR gamma on Ser112 or Ser273 was detected by phospho-specific antibodies (Ser112, Millipore, MAB3632).

Data set [4] addresses T4, cdk5-mediated phosphorylation of PPAR gamma in adipose tissue (Mus musculus, UniProt P37238).
T4 construct: For tissue lysates, WAT from mice was homogenized in RIPA buffer; from tissue; host or cells: white adipose tissue of C57BL/6J mice on high fat diet
T4 sequence (P37238 1-505): T2 sequence (P37238 1-505)
In words: Phosphorylation of PPAR gamma in adipose tissue (WAT) of treated high-fat fed mice. The data set is classed as in vivo. The note with it: 10 mg/kg for 7 days, FIG. 9D.
Procedure: For tissue lysates, WAT from mice was homogenized in RIPA buffer (50 mM Tris pH7.5, 150 mM NaCl, 1% NP-40, 0.5% sodium deoxycholate, 0.1% SDS with protease and phosphatase inhibitors). […] Total tissue lysates were analyzed with anti-PPAR gamma, phospho-CDK5 (Y15), CDK5 and p35 antibodies (Santa Cruz). Phosphorylation of PPAR gamma on Ser112 or Ser273 was detected by phospho-specific antibodies (Ser112, Millipore, MAB3632).
4 to 5-week old male C57BL/6J mice were obtained from the Jackson Laboratory.

Another data set has as its system adipogenesis. As to conditions: cited from earlier work.
Data set [5] deals with PPAR gamma-null fibroblasts expressing WT PPAR gamma. The experiment in a line: Microarray analysis of differentiated PPAR gamma-null fibroblasts expressing wild type PPAR gamma. The data set is classed as cell-based, mouse. As to conditions: 1 μM, 24 hours; FIG. 5F. The source says:
To create refined gene sets regulated by cdk5 phosphorylation of PPAR gamma, p-value as well as fold-change of gene expression in WT versus S273A mutant cells was first calculated, and—log p-value versus log2 fold-change was plotted.

The target of data set [6] is T5, cdk5-mediated phosphorylation of PPAR gamma (serine 273) (Mus musculus, UniProt P37238).
T5 construct: FLAG (N); made in house
T5 sequence (P37238 1-505): T2 sequence (P37238 1-505)
In words: In vitro CDK5 kinase assay with cdk5/p35 and PPAR gamma as substrate. It is filed as biochemical, murine. The note with it: FIG. 5B, FIG. 6.
Procedure: Kinase assays were performed using an active cdk5/p35 protein and recombinant PPAR gamma protein as a substrate in kinase buffer in the presence of ATP. The reaction was stopped by adding sample buffer. Samples were then subjected to SDS-PAGE, and detected by CDK substrate antibody. In particular, active cdk5/p35, cdk1/cdc2, cdk2/cyclin A, cdk2/cyclin E or cdk4/cyclin D1 kinases were purchased from Millipore or Cell Signaling Technology. In vitro CDK kinase assay was performed according to the manufacturer's instructions (Cell Signaling Technology). […] Positive control for assay, purified histone H1 (Millipore) or Rb (Cell Signaling Technology) were used. Several PPAR gamma ligands were pre-incubated with substrates for 30 min, and the assay was performed. Phosphorylation of substrates after SDS-PAGE was analyzed with anti-CDK substrate antibody (Cell Signaling Technology).

For another data set, the system named is high-fat fed mice. The experiment in a line: Glucose tolerance, fasting insulin and body weight in high-fat fed mice. The note with it: 10 mg/kg for 7 days.
Data set [7] concerns mice. The experiment in a line: Whole body oxygen consumption (CLAMS) in treated mice. It is filed as in vivo. As to conditions: 10 mg/kg for 10 days.
The subject of data set [8] is mice. As to conditions: Acton et al. 2005; cited from earlier work.
For data set [9], the target named is T6, wild type PPAR gamma (cdk5-mediated phosphorylation) (Mus musculus, UniProt P37238).
T6 construct: expressed in transfected cells; host or cells: 3T3-L1 adipocytes
T6 sequence (P37238 1-505): T2 sequence (P37238 1-505)
The experiment in a line: TNF-α-induced phosphorylation of PPAR gamma in 3T3-L1 adipocytes expressing wild type PPAR gamma. It is filed as cell-based. As to conditions: combined with rosiglitazone, FIG. 5A.
Procedure: HEK-293 cells expressing CDK5 or PPAR gamma were collected after transfection. Total cell lysates were incubated with FLAG M2 agarose (Sigma) at 4° C. Immunoprecipitates or total cell lysates were analyzed with anti-CDK substrate, FLAG or HA (Roche) antibodies. Differentiated 3T3-L1 adipocytes were treated with TNF-α (50 ng/ml), IL-6 (50 ng/ml), IL-10 (50 ng/ml) or FFAs (400 μM palmitic acid and oleic acid mixtures) for the indicated times, and cell lysates were analyzed with phospho-specific or PPAR gamma antibodies. 3T3-L1 adipocytes were pre-treated with various PPAR gamma ligands, and incubated with TNF-α. For tissue lysates, WAT from mice was homogenized in RIPA buffer (50 mM Tris pH7.5, 150 mM NaCl, 1% NP-40, 0.5% sodium deoxycholate, 0.1% SDS with protease and phosphatase inhibitors). […] Total tissue lysates were analyzed with anti-PPAR gamma, phospho-CDK5 (Y15), CDK5 and p35 antibodies (Santa Cruz).

Entries after “also recorded” stand apart in the source; their conditions may differ.

The text below walks through data of patent publication US10429384B2, “Compositions, kits, and methods for identification, assessment, prevention, and therapy of metabolic disorders” (Dana-Farber Cancer Institute, Inc., priority 2010, dated 2019).

T1 sequence (Q00535 whole entry, species assumed): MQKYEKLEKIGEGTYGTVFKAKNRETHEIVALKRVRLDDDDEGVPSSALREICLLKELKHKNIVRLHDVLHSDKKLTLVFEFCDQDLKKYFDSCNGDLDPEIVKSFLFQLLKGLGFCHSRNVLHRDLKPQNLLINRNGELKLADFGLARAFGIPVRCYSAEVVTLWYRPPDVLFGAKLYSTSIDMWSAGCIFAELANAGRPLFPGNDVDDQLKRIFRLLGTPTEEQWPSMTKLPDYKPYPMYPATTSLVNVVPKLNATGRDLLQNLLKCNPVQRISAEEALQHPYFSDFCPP
T1 sequence (Q15078 whole entry partner, species assumed): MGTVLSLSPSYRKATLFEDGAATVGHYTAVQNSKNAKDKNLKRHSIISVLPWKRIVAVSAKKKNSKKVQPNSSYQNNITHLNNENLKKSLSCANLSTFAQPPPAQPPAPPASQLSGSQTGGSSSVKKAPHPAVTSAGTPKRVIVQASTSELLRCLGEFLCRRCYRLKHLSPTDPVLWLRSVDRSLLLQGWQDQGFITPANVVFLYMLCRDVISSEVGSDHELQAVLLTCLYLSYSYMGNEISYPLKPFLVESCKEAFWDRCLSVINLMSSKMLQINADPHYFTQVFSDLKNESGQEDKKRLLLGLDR

On to `COc1ccc(C(=O)n2c(C)c(Cc3cccc(O[C@@H](C)C(=O)O)c3)c3cc(OC(F)(F)F)ccc32)cc1` [MRL24], for which the “inhibition of cdk5 phosphorylation of Rb” value in [1] is on record as “retained full ability to phosphorylate Rb”. Further, in data set [2] (30 nM, same cells as phosphorylation test), the “agonist activity on PPAR gamma at 30 nM” value is reported as “essentially undetectable agonist activity”. In addition, the “agonist activity on a PPAR transcriptional response element” value in data set [2] (compared to rosiglitazone) was “very weak agonist activity; also recorded: only a small fraction of the agonist activity of rosiglitazone”. Moreover, the “block of TNF-α-mediated phosphorylation of PPAR gamma” value in [3] was “blocked the TNF-α-mediated phosphorylation of PPAR gamma essentially completely”. Moreover, the “cdk5-mediated phosphorylation of PPAR gamma in adipose tissue” value in data set [4] is “reduced the cdk5-mediated phosphorylation of PPAR gamma in the adipose tissue of every mouse”. Besides, the “ability to promote adipogenesis” value in the data set with adipogenesis is reported as “virtually no ability to promote adipogenesis”. Also, in data set [5], the “expression of gene cluster "c" (genes increased by the cdk5 site mutation)” value is “corresponded remarkably well to the gene set induced by the mutation in the cdk5 site of PPAR gamma” and the “expression of gene group "a" (genes activated by cdk5 phosphorylation of PPAR gamma)” value was “suppressed”. Also, the “blocking of cdk5-mediated phosphorylation of PPAR gamma” value in [6] is recorded as “very effective at blocking the cdk5-mediated phosphorylation of PPAR gamma”. For the same molecule, in the data set on high-fat fed mice, the fasting insulin levels entry was “reduced fasting insulin levels” and the glucose tolerance result is “dramatically improved glucose tolerance”. Further, the “whole body oxygen consumption” value with mice [7] is “selectively increase whole body oxygen consumption in vivo”. The anti-diabetic activity entry in the data set on mice [8] was “excellent anti-diabetic activity in mice”.

Take `O=C(Nc1ccccc1)c1cc([N+](=O)[O-])ccc1Cl` [GW 9662]: the “effect of antagonist on rosiglitazone inhibition of PPAR gamma phosphorylation” value in data set [9] is “completely blocked this effect of rosiglitazone”.

Consider `CN(CCOc1ccc(CC2SC(=O)NC2=O)cc1)c1ccccn1` (stereo not drawn) [rosiglitazone], for which the body weight result in the data set on high-fat fed mice is recorded as “without inducing changes in body weight”.
